# Measurements from US20080071116A1, “Modulators of Lysophosphatidic Acid (Lpa) Signaling and the Use Thereof” (THE BOARD OF REGENTS OF THE UNIVERSITY OF TEXAS SYSTEM, priority 2004, published 2008).
# Entries after “also recorded” stand apart in the source; their conditions may differ.
# What was measured:
# [1] = system: HT29 cells; test: calcium mobilization assay in colon cancer HT29 cells; format: cell-based; conditions: HT29 cells (only express LPA2), FIGS. 21-22
# Protocol: The procedures for these calcium mobilization assays are as followed: OVCAR3 cells and PC-3 cells were cultured in RPMI 1640 medium with 10% FBS (fetal bovine serum). HT29 cells were cultured in DMEM (high glucose) medium with 10% FBS. All cells were cultured at about 37° C. in a humidified atmosphere with 5% CO2. After starvation in serum-free medium for about 12-24 hours, cells were harvested and loaded with about 1 μM of Indo-1 AM in serum-free medium for about 45 min at 37° C. Cells were washed in PBS and resuspended at 2×10^6 cells/ml in a [Ca^2+]i assay buffer (Sodium chloride, NaCl, about 140 mM, potassium chloride, KCl, about 2 mM, magnesium chloride, MgCl2, about 1 mM, calcium chloride, CaCl2, about 2 mM, in about 25 mM HEPES buffer at pH 7.4 with about 10 mM of glucose). Cytoplasmic [Ca^2+]i was determined at an excitation wavelength of about 331 nm and an emission wavelength of 410 nm using a fluorescence spectrophotometer (Hitachi, F-4000). Approximately 3×10^6 cells were used for [Ca^2+]l determination in a stirred quartz cuvette kept at about 37° C. OMPT or 18:1 LPA was dissolved in about 0.1% BSA/PBS solution and applied immediately to the cells. To test other LPA derivatives of the invention, cells were exposed to the derivatives for about 3 minutes or for a period of various times in time course related experiments before a LPA agonist, such as 18:1 LPA, OMPT, or other LPAs was applied into the cuvette.
# The concentration of calcium mobilization giving the half-maximal response (EC50) was obtained from the concentration-response curve fitted to a sigmoidal logistic equation, with the maximal calcium response set to 100% using the GraphPad Prism. Maximal response value is expressed as mean +/−s.e.m. EC50 value is expressed with 95% confidence.
# [2] = system: DU145 cells; test: calcium mobilization assay in androgen insensitive prostate cancer DU145 cells; format: cell-based, human
# [3] = system: HT29 cells; test: lamellipodia formation in colon cancer HT29 cells; format: cell-based; conditions: for inhibition of 14:0 LPA-induced lamellipodia formation / inhibition of 1% FBS-induced lamellipodia formation / inhibition of 10% FBS-induced lamellipodia formation: HT29
# [4] = system: PC-3 cells; test: lamellipodia formation in PC-3 cells; format: cell-based, human; conditions: 30 μM
# [5] = system: HT29 cells; test: cell growth (cell viability) in HT29 cells; format: cell-based
# [6] = system: PC-3 cells; test: cell growth (cell viability) in PC-3 cells; format: cell-based, human; conditions: for inhibition of cell growth (cell viability): PC-3
# [7] = system: DU145 cells; test: cell growth (cell viability) in DU145 cells; format: cell-based, human
# [8] = system: DU145 cells; test: cell migration of DU145 cells; format: cell-based, human
# [9] = system: DU145 cells; test: focal adhesion in DU145 cells; format: cell-based, human; conditions: FIG. 55
# [10] = system: PC-3 cells; test: focal adhesion in PC-3 cells; format: cell-based, human; conditions: FIG. 56
structure (smiles),measurement,setting,value
"CCCCCCCCCCCCCCCCCC(=O)OC[C@@H](O)COP(=O)(O)OCC(O)CO (mixture of isomers) [18:0 LPG, 1-stearoyl-2-hydroxy-sn-glycero-3-[phospho-rac-(1-glycerol)]]",inhibition of (18:1) LPA-induced calcium mobilization,[1],inhibited LPA-induced calcium mobilization; also recorded: effective inhibitors/antagonists
same,inhibition of 14:0 LPA-induced calcium mobilization,[2],inhibited calcium mobilization
same,inhibition of lamellipodia,"[3]; HT29, serum-free medium, 10 and 30 μM, FIGS. 24-25",inhibits lamellipodia in HT29 cells in a concentration dependent manner
same,inhibition of 14:0 LPA-induced lamellipodia formation,"[3]; 10 μM, FIG. 27",inhibition of 14:0 LPA-induced LPA2 receptor mediated lamellipodia formation
same,inhibition of 1% FBS-induced lamellipodia formation,"[3]; 10 μM, FIG. 30",inhibition of 1% FBS-induced LPA2 receptor mediated lamellipodia formation
same,inhibition of 10% FBS-induced lamellipodia formation,"[3]; 10 μM, FIG. 33",no inhibition
same,inhibition of 14:0 LPA-induced lamellipodia formation,"[3]; 30 μM, FIG. 28",inhibition of 14:0 LPA-induced LPA2 receptor mediated lamellipodia formation
same,inhibition of 1% FBS-induced lamellipodia formation,"[3]; 30 μM, FIG. 31",inhibition of 1% FBS-induced LPA2 receptor mediated lamellipodia formation
same,inhibition of 10% FBS-induced lamellipodia formation,"[3]; 30 μM, FIG. 34",no inhibition
same,effect on spontaneously activated lamellipodia,"[4]; PC-3, serum-free, FIGS. 38-40",inhibit spontaneously activated lamellipodia
same,inhibition of 18:1 LPA-induced lamellipodia formation,"[4]; PC-3, FIGS. 42-44",inhibition of 18:1 LPA-induced LPA2 receptor mediated lamellipodia formation
same,inhibition of cell growth (cell viability),"[5]; FBS (1%), FIG. 36",inhibition of cell growth (cell viability) at high concentrations
same,inhibition of cell growth (cell viability),"[5]; FBS (10%), FIG. 36",but not in the presence of high concentrations of FBS (10%)
same,inhibition of cell growth (cell viability),"[5]; in the presence of 10 μM of 14:0 LPA, FIG. 35",inhibition of cell growth (cell viability) at high concentrations
same,inhibition of cell growth (cell viability),"[6]; in the presence of 10 μM of 18:1 LPA, FIGS. 45-47",inhibition of cell growth (cell viability) at high concentrations
same,inhibition of cell growth (cell viability),"[6]; without LPA, FIGS. 46-47",inhibition of cell growth (cell viability) at high concentrations
same,reduction of cell viability / cell growth,[6]; PC-3 cells,reduced cell viability
same,reduction of cell viability / cell growth,[7],reduced cell viability
same,reduction of cell migration,[8],could reduce cell migration
same,reduction of focal adhesion,[9],reduce focal adhesion
same,reduction of focal adhesion,[10],reduce focal adhesion
